Test: metabolic stability in liver microsomes (standard microsomal incubation, LC/MS)
Assay type: in vitro ADME
Settings: 10 μM compound, 0.2 μM microsomal cytochrome P450, pH 7.4, 37° C, read-out: % Loss (amount of compound that was metabolically degraded)
Procedure: The metabolic stability of the active compounds may be assessed according to the following procedure. A standard microsomal incubation condition is prepared for assessing the rate of metabolism of the active compound in liver microsomes. The microsomal incubation condition comprises 100 mM potassium phosphate buffer (pH 7.4), 10 mM MgCl2, 0.5 mM NADP^+ (nicotinamide adenine dinucleotide phosphate) 4 mM glucose 6 phosphate, 10 unit/mL glucose 6 phosphate dehydrogenase, 0.2 μM microsomal cytochrome P450, and 10 μM active compound. The incubation is started by adding substrate to the reaction mixture that has been preincubated for approximately 3 minutes at 37° C. An aliquot is removed at 0, 1, 2, 5, 10, and 20 minute time points and added to an equal volume of methanol to quench the reaction. The precipitate in the samples is removed by centrifugation and the supernatants are stored at -20° C. The samples are analyzed by standard LC/MS to determine the amount of active compound that has been metabolically degraded.
The compounds illustrated in the chemical formula provided for the Table above were prepared as described in PCT published patent application WO 95/29909, which was published Nov. 9, 1995, entitled "Novel Acyclic And Cyclic Amides As Neurotransmitter Release Enhancers." The compounds illustrated above are pharmaceutically active compounds that enhance the release of neurotransmitters such as acetylcholine, dopamine and serotonin, and therefore are useful for treating Alzheimer's disease, age-associated memory impairment, Parkinson's disease and other central nervous system disorders in mammals, in particular humans. The metabolic stability of the above compounds was assessed according to the procedure described above. The metabolic stability of the above compounds is provided in the above table in the column marked "% Loss" which indicates the amount of compound that was metabolically degraded after 10 minutes in a standard microsomal incubation condition which was prepared as described above.

| metabolised at 10 min, 10 µM [%] | SMILES |
| --- | --- |
| 10 | O=C1CC(Cc2ccncc2)(Cc2ccncc2)C(=O)N1C12CC3(F)CC(F)(CC(F)(C3)C1)C2 [F F F] |
| 75 | O=C1CC(Cc2ccncc2)(Cc2ccncc2)C(=O)N1C12CC3CC(F)(CC(F)(C3)C1)C2 [F F H] |
| > 75 | O=C1CC(Cc2ccncc2)(Cc2ccncc2)C(=O)N1C12CC3CC(CC(C3)C1)C2 [H H H, reference compound] |
| 75 | O=C1CC(Cc2ccncc2)(Cc2ccncc2)C(=O)N1C12CC3CC(CC(F)(C3)C1)C2 [F H H] |
